Experimental data taken from patent publication US10669272B2, “Substituted naphthyridinone compounds useful as T cell activators” (BRISTOL-MYERS SQUIBB COMPANY, priority 2018, dated 2020).
Where two headings read alike, the source gives them in different places.

Key:
Human venous whole blood = test: Human whole blood IFN-γ assay; assay type: cell-based; conditions: human whole blood, read-out: INFg Whole Blood Normalized Agonist EC50;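 note: blood from healthy donors exposed to compound for 1 h before stimulation with anti-CD3 and anti-CD28 at 1 µg/mL each, IFN-γ quantified in supernatant by AlphaLISA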
human DGKζ = molecular target: T1, human DGKζ (Homo sapiens, UniProt Q13574); test: DGKζ LIPGLO assay (extruded liposome substrate), in vitro DGK inhibition; assay type: biochemical; conditions: read-out: DGKz LIPGLO IC50
T1 construct: TVMV protease cleavage site (C); Hexa-His (C); made in house; host or cells: Sf9 insect cells (baculovirus, Bac-to-Bac)

human DGKα = molecular target: T2, human DGKα (Homo sapiens, UniProt P23743); test: DGKα LIPGLO assay (extruded liposome substrate), in vitro DGK inhibition; assay type: biochemical; conditions: read-out: DGKa LIPGLO IC50
T2 construct: TVMV protease cleavage site (C); Hexa-His (C); made in house; host or cells: Sf9 insect cells (baculovirus, Bac-to-Bac)

[1] = Homo sapiens, 24 h, normalized to 3 μM reference compound with anti-CD3 plus anti-CD28 as 100% activation
[2] = anti-CD3 plus anti-CD28, 24 hours, 3 μM reference compound = 100% activation
[3] = normalized to 3 μM reference compound with anti-CD3 plus anti-CD28 as 100% activation
[4] = Homo sapiens, 24 h, anti-CD3 plus anti-CD28, 24 hours, 3 μM reference compound = 100% activation

T1 sequence (Q13574 with tags, fused parts or gaps isoform Q13574-4): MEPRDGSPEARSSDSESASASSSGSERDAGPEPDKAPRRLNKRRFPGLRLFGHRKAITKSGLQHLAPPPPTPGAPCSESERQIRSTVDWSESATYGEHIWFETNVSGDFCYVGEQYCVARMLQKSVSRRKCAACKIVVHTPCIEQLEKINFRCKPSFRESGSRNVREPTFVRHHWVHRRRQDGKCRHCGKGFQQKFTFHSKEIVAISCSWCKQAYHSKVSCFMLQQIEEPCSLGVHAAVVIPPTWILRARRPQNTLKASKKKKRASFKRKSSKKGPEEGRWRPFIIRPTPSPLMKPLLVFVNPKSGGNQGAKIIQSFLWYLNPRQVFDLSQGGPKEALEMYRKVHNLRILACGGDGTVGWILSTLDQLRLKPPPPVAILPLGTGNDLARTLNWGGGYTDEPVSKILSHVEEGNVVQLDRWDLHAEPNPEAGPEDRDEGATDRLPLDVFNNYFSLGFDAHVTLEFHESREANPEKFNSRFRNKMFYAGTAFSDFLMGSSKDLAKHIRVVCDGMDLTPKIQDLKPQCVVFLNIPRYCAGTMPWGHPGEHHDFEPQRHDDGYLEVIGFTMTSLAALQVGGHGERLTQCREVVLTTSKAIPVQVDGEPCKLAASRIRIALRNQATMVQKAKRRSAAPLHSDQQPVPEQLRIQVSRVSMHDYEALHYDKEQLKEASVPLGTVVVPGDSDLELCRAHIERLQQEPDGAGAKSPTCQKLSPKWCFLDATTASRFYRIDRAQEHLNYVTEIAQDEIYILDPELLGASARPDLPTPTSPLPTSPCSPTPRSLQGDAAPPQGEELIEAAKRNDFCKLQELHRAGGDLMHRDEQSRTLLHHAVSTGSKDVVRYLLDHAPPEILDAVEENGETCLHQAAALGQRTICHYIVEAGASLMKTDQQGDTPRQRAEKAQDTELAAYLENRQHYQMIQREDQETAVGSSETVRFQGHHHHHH
T2 sequence (P23743 with tags, fused parts or gaps): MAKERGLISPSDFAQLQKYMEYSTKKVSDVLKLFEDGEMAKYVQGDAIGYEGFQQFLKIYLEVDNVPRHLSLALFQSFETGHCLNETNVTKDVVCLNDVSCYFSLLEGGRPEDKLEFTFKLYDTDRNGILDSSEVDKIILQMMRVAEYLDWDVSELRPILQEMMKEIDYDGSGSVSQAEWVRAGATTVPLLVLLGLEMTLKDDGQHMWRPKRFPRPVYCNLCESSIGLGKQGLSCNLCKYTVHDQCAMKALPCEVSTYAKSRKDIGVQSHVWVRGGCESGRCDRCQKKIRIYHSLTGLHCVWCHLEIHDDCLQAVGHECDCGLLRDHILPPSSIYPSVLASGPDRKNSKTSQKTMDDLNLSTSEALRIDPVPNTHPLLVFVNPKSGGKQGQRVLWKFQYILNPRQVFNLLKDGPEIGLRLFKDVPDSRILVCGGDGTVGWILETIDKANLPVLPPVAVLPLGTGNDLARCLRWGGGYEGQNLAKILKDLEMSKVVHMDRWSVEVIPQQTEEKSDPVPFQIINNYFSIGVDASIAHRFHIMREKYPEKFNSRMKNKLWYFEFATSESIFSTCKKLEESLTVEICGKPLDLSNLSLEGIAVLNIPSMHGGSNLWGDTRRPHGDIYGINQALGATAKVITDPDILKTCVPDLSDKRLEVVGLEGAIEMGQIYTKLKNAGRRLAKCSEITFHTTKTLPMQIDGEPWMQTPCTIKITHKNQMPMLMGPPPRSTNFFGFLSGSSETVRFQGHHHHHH

Compound	IC50 (human DGKζ; liposome (LIPGLO) assay) [nM]	IC50 (human DGKα; liposome (LIPGLO) assay) [nM]	IC50 (human DGKζ; DGKζ liposome (LIPGLO) assay) [nM]	IC50 (human DGKα; DGKα liposome (LIPGLO) assay) [nM]	EC50 (Human venous whole blood; [1]) [nM]	EC50 (Human venous whole blood; [2]) [nM]	EC50 (Human venous whole blood; [3]) [nM]	EC50 (Human venous whole blood; [4]) [nM]
COc1cc(OC(F)(F)F)ccc1CN1C[C@H](C)N(c2cc(=O)n(C)c3ccc(C#N)nc23)C[C@H]1C [Example 352, 8-((2S,5R)-4-(2-methoxy-4-(trifluoromethoxy)benzyl)-2,5-dimethylpiperazin-1-yl)-5-methyl-6-oxo-5,6-dihydro-1,5-naphthyridine-2-carbonitrile]	1700	520	–	–	790	–	–	–
C[C@@H]1CN(c2cc(=O)n(C)c3ccc(C#N)nc23)[C@@H](C)CN1C(c1ccc(F)cc1)c1ccns1 (stereo partly drawn) [Example 719]	380	400	–	–	–	–	500	–
C[C@@H]1CN(c2cc(=O)n(C)c3ccc(C#N)nc23)[C@@H](C)CN1C(c1ccc(F)cc1)c1cccc(S(C)(=O)=O)c1 (single isomer, unassigned) [Example 688]	24000	83000	–	–	–	–	13000	–
CC(c1ccc(C(F)(F)F)cn1)N1C[C@H](C)N(c2cc(=O)n(C)c3ccc(C#N)nc23)C[C@H]1C (single isomer, unassigned) [Example 643]	1600	310	–	–	–	–	5300	–
CC(c1ccc(OC(F)(F)F)cc1F)N1C[C@H](C)N(c2cc(=O)n(C)c3ccc(C#N)nc23)C[C@H]1C (stereo partly drawn) [Example 437, 8-((2S,5R)-4-(1-(2-fluoro-4-(trifluoromethoxy)phenyl)ethyl)-2,5-dimethylpiperazin-1-yl)-5-methyl-6-oxo-5,6-dihydro-1,5-naphthyridine-2-carbonitrile]	670	400	–	–	540	–	–	–
C[C@@H]1CN(c2cc(=O)n(C)c3ccc(C#N)nc23)[C@@H](C)CN1C(c1ccc(O)cc1)C(F)(F)F (stereo partly drawn) [Example 626]	7900	1700	–	–	2500	–	–	–
C[C@@H]1CN(c2cc(=O)n(C)c3ccc(C#N)nc23)[C@@H](C)CN1C(c1ccc(F)cc1)c1cnn(C2CC2)c1 (single isomer, unassigned) [Example 725]	–	–	490	550	–	–	–	1500
C[C@@H]1CN(c2c(F)c(=O)n(C)c3ccc(C#N)nc23)[C@@H](C)CN1C(c1ccc(Cl)cc1)c1ccc(OC(F)(F)F)cc1 (stereo partly drawn) [Example 324, 8-((2S,5R)-4-((4-chlorophenyl)(4-(trifluoromethoxy)phenyl)methyl)-2,5-dimethylpiperazin-1-yl)-7-fluoro-5-methyl-6-oxo-5,6-dihydro-1,5-naphthyridine-2-carbonitrile]	4100	1200	–	–	–	–	4700	–
C[C@@H]1CN(c2c(C#N)c(=O)n(C)c3ccc(C#N)nc23)[C@@H](C)CN1C(c1ccccc1)c1cc(F)cc(F)c1 (single isomer, unassigned) [Example 814]	–	–	1000	35000	–	5500	–	–
Cc1ccc(C(c2cccc(F)c2)N2C[C@H](C)N(c3cc(=O)n(C)c4ccc(C#N)nc34)C[C@H]2C)cn1 (stereo partly drawn) [Example 417, 8-((2S,5R)-4-((3-fluorophenyl)(6-methylpyridin-3-yl)methyl)-2,5-dimethylpiperazin-1-yl)-5-methyl-6-oxo-5,6-dihydro-1,5-naphthyridine-2-carbonitrile]	11000	20000	–	–	–	–	7700	–
C[C@@H]1CN(c2cc(=O)n(C)c3ccc(C#N)nc23)[C@@H](C)CN1C(c1ccc(F)cc1)c1cscn1 (stereo partly drawn) [Example 721]	–	–	1100	72	–	3500	–	–
COc1ccc(C(c2cccc(F)c2)N2C[C@H](C)N(c3cc(=O)n(C)c4ccc(C#N)nc34)C[C@H]2C)nc1 (single isomer, unassigned) [Example 686]	3400	4300	–	–	–	–	560	–
C[C@@H]1CN(c2cc(=O)n(C)c3ccc(C#N)nc23)[C@@H](C)CN1C(c1ccc(F)cc1)c1c(F)cc(F)cc1F (single isomer, unassigned) [Example 693]	570	2200	–	–	–	–	290	–
C[C@@H]1CN(c2cc(=O)n(C)c3ccc(C#N)nc23)[C@@H](C)CN1C(c1ccc(F)cc1)c1cnc(C2CC2)s1 (single isomer, unassigned) [Example 728]	–	–	44	63	–	920	–	–
COc1ccc(C(C)N2C[C@H](C)N(c3cc(=O)n(C)c4ccc(C#N)nc34)C[C@H]2C)nc1 (single isomer, unassigned) [Example 645]	18000	1900	–	–	–	–	17000	–

Second part, led by results:

IC50 (human DGKζ; liposome (LIPGLO) assay) [nM]	IC50 (human DGKα; liposome (LIPGLO) assay) [nM]	IC50 (human DGKζ; DGKζ liposome (LIPGLO) assay) [nM]	IC50 (human DGKα; DGKα liposome (LIPGLO) assay) [nM]	Compound	EC50 (Human venous whole blood; [1]) [nM]	EC50 (Human venous whole blood; [2]) [nM]	EC50 (Human venous whole blood; [3]) [nM]	EC50 (Human venous whole blood; [4]) [nM]
–	–	6500	2700	C[C@@H]1CN(c2c(C#N)c(=O)n(C)c3ccc(C#N)nc23)[C@@H](C)CN1C(c1ccc(F)cc1)c1ncccc1F (single isomer, unassigned) [Example 821]	–	3400	–	–
50	900	–	–	CCOC[C@@H]1CN(c2cc(=O)n(C)c3ccc(C#N)nc23)[C@@H](C)CN1C(c1ccc(F)cc1)c1ccc(C(F)(F)F)cn1 (stereo partly drawn) [Example 1404]	–	–	900	–
–	–	880	750	C[C@@H]1CN(c2c(C#N)c(=O)n(C)c3ccc(C#N)nc23)[C@@H](C)CN1C(c1ccc(F)cc1)c1ccccn1 (single isomer, unassigned) [Example 843]	–	3800	–	–
750	1400	–	–	CC[C@H]1CN(C(C)c2ccc3c(c2)OC(F)(F)O3)[C@H](CC)CN1c1cc(=O)n(C)c2ccc(C#N)nc12 (single isomer, unassigned) [Example 1369]	–	–	1300	–
–	–	3000	220	CC(c1ccc(C#N)cc1)N1CCN(c2c(C#N)c(=O)n(C)c3ccc(C#N)nc23)C[C@H]1C (stereo partly drawn) [Example 955]	–	20000	–	–
370	1800	–	–	COC(=O)NC[C@@H]1CN(c2cc(=O)n(C)c3ccc(C#N)nc23)[C@@H](C)CN1C(c1ccc(F)cc1)c1ccc(F)cc1 [Example 1166, methyl (((2R,5S)-1-(bis(4-fluorophenyl)methyl)-4-(6-cyano-1-methyl-2-oxo-1,2-dihydro-1,5-naphthyridin-4-yl)-5-methylpiperazin-2-yl)methyl)carbamate]	350	–	–	–
–	–	28000	2100	COC(=O)c1ccc(C(C)N2CCN(c3c(C#N)c(=O)n(C)c4ccc(C#N)nc34)C[C@H]2C)cc1 (stereo partly drawn) [Example 981]	–	–	–	13000
12000	2600	–	–	CC(c1ccc(OC(F)(F)F)cc1)N1C[C@H](C)N(c2cc(=O)n(C)c3ccc(C#N)nc23)C[C@H]1CO (single isomer, unassigned) [Example 1387]	–	–	20000	–
–	–	840	1500	C[C@@H]1CN(c2c(C#N)c(=O)n(C)c3ccc(C#N)nc23)CCN1C(c1ccc(F)cc1)c1ccccc1F (stereo partly drawn) [Example 883]	–	830	–	–
890	190	–	–	CC(c1ccc(OC(F)F)cc1)N1C[C@H](C)N(c2c(C#N)c(=O)n(C)c3ccc(C#N)nc23)C[C@H]1C (single isomer, unassigned) [Example 1375]	1800	–	–	–
1100	2200	–	–	C[C@@H]1CN(c2c(C#N)c(=O)n(C)c3ccc(C#N)nc23)CCN1C(c1ccc(F)cc1)c1nc(C2CC2)no1 (single isomer, unassigned) [Example 1030]	–	–	670	–
–	–	7500	3300	C[C@@H]1CN(c2c(C#N)c(=O)n(C)c3ccc(C#N)nc23)CCN1C(c1ccc(F)cc1)c1cnn(C)c1 (stereo partly drawn) [Example 1016]	–	–	–	3300
